Assay results: publication PMC13233288, “Spider venom peptides Ht1a and Gg1a are toxic to honeybee parasite Varroa destructor by topical application” (npj Drug Discovery, 2026)

What was measured:
V. destructor mites = test: Topical application of synthetic peptides and oxalic acid to V. destructor mites; type: in vivo, Varroa destructor; conditions: 3% oxalic acid, positive control
Experimental: An outline of the project discovery pipeline is presented in Supplementary Fig. 1. To identify varroacidal venom peptides, we screened venoms for activity against V. destructor by topical application. Topical tests were performed in several stages. First, whole venom was tested to determine mortality for V. destructor. Hit venoms were then subjected to several fractionation steps to isolate the active compounds. For the initial venom screen, a panel of 50 arthropod venoms (Table 1) were topically applied to V. destructor mites. Venoms were dissolved in 90% acetonitrile (v/v), and a 10 μg venom aliquot was applied per mite (n = 5 mites per venom). The dorsal plate of V. destructor mites (average mass 0.38 mg) was fixed to adhesive tape (ScotchTM 666 3 M; 19 × 32.9 mm, double sided) on microscope slides (ground edges 90° frosted end, 76 × 26 mm). A Nanoject II (Automatic Injector with Glass Capillaries, Drummond Cat.No. 3-000-205 A) was used for topical application of venom and control (90% acetonitrile) solutions. To accelerate solvent evaporation, the total volume of 483 nL was applied in seven aliquots of 69 nL each to the ventral plate of the mites between the posterior pair of legs. Each drop was allowed to dry before applying the next one, with the entire application procedure taking up to 1 h. Mite mortality was determined at various time intervals up to 48 h after the treatment using an Olympus stereomicroscope (SZX10/SZX2 Series). Initially, each mite was examined for movements of the legs, and immobile mites were stimulated with the tip of a wooden toothpick. Detection of static electricity by the mites, a few millimetres before the actual contact with the toothpick, was usually sufficient to trigger movement in mites that were still alive. […] At the later stage of the project, the slides with mites were placed into a self-constructed automated video monitoring system (using a USB camera) that employs an algorithm in OpenCV to subtract images from subsequent frames enabling the detection of changes in pixel intensity due to movements, for example of the extremities. Leg movements were stimulated with an air current applied over the mites at the time of image acquisition to determine mite mortality. The percentage of mite mortality for each venom was calculated at 2, 6 and 24 h, and adjusted by correcting for the mortality of the corresponding control group receiving only 90% acetonitrile.
The same procedure initially used for identifying varroacidal venoms was used for testing the topical activity of sHt1a and sGg1a. The peptides were dissolved in 0.5% Silwet L-77 (v/v), a silicone-based surfactant that is commonly used as a spreading agent for foliar sprays. 0.48 μg of peptide was topically applied to each mite, with n = 5 mites per treatment group. The activity of the sHt1a was confirmed using three cohorts of n = 5 mites, whereas the activity of sGg1a was confirmed using four cohorts of n = 5 mites. As a negative control, an equal volume of 0.5% Silwet (v/v) was topically applied (four cohorts of n = 5 mites), and 3% oxalic acid, a known varroacide used in commercial products[10] was used as positive control (eight cohorts of n = 5 mites). Mite mortality was recorded at 2-hourly intervals between 0 and 48 h after the treatment. For statistical analysis, mite survival data were plotted in Prism 10.0 (GraphPad Software, CA, USA), then a two-way ANOVA followed by Dunnett’s multiple comparisons test was performed, comparing the peptide and oxalic acid treatment against the respective 0.5% Silwet (v/v) control group data.

honeybees = conditions: cited from earlier work
Description: (§1) A possible alternative solution for control of V. destructor is venom-derived acaricidal peptides. Venomous arachnids such as spiders and scorpions prey on arthropods, including other arachnids[17]–[19]. It is therefore unsurprising that the wide-spectrum insecticidal spider-venom peptide ω-hexatoxin-Hv1a (hereafter Hv1a) is also acaricidal. […] It therefore seems plausible that within the venoms of >53,000 extant spider[23] and >2,800 extant scorpion species, each comprising hundreds to thousands of p ...

[1] = cited from earlier work
Description: as §1

mammals = conditions: cited from earlier work
Description: as §1

Molecule	time to significant mortality (V. destructor mites; eight cohorts of n = 5 mites) [h]	survival of V. destructor (V. destructor mites; vs 0.5% Silwet group, two-way ANOVA, Dunnett)	activity against honeybees (honeybees)	acaricidal activity [1]	activity against mammals (mammals)
O=C(O)C(=O)O [oxalic acid, reference compound]	2	significantly reduced V. destructor survival	–	–	–
ω-hexatoxin-Hv1a	–	–	inactive	acaricidal	inactive
